These results are taken from patent publication US20230345975A1, “COMPOSITIONS AND METHODS OF PRESERVING MEAT SUBSTITUTES” (Wisconsin Alumni Research Foundation, priority 2016, published 2023).

“Also recorded” adds a separate entry of the source. Where two headings read alike, the source gives them in different places. Some results are limits rather than exact numbers.

In general, pKa refers to the pH at which an ionisable group is half protonated.

The target in data set [1] is plant Hb (soybean hemoglobin; Lba) in meat analog (Glycine max, UniProt P02238). The experiment in a line: Color stability of meat analog during refrigerated light display. As for the experimental part: FIG. 1—Color stability of meat analog. Treatments: Water (W); 2.5 mmol/kg tissue Niacin (NA). Packaging: High oxygen package (80% O2, 20% CO2). Water content: 3% water capacity. Days under light (˜300 ft): 4 days under light display at 1-3° C.
FIG. 3—Effect of high oxygen during packaging. […] W-water added. All samples were stored at 1-3° C. during light display (300 foot candles).
The niacin can also be added to the solid plant protein/plant fat matrix already containing the added plant Hb. There is approximately 150 μmol of plant heme/kg meat analog. Therefore, a targeted final concentration of niacin would be 150 μmol/kg meat analog, which is equivalent to 18.5 mg niacin per kg meat analog.
Niacin is added to the meat analog already containing the plant Hb (soybean hemoglobin; Lba) and the product is stored under lights in high oxygen packaging during 4 days of refrigerated storage.

For data set [2] the following is noted: cited from earlier work.
Another data set has as its target soybean Hb (Lba) (Glycine max, UniProt P02238). Description: Redness (a-value) of Lba solutions after exposure to 35 fc of light for 4 days. The settings on record: for Redness (a-value) at day 4: 35 fc light, 4 days, main effect over pH. The method, then:
FIG. 2—Effect of pH and different molar ratios of niacin to soybean Hb on the redness of Lba solutions. Measurement after exposure to 35 fc of light for 4 days
100 grams of meat analog containing a 3:1 dose of niacin would provide 5.9 mg niacin; a 6:1 dose would provide 11.8 mg niacin.

The conditions of data set [3]: cited from earlier work. This is another data set of the same source.

soybean Hb (Lba), sequence (P02238 whole entry): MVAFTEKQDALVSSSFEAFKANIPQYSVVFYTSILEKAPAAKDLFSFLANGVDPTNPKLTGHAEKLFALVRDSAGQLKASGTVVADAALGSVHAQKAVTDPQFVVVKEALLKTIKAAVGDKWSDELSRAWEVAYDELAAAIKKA
plant Hb (soybean hemoglobin; Lba) in meat analog, sequence (P02238 whole entry): as above

On to `O=C1O[C@H]([C@@H](O)CO)C(O)=C1O` [Ascorbic acid], for which the “color stabilization of meat analog” value in data set [1] (high oxygen packaging 80% O2/20% CO2, light display 300 foot candles, 1-3° C.) is “did not stabilize color”.
Consider `N[C@@H](Cc1c[nH]cn1)C(=O)O` [histidine, Histidine], for which the pKa in data set [2] (buffer) was about 6. Also, in data set [2], the “pKa of the conjugate acid (protonated form) of the imidazole side chain” value is reported as “approximately 6.0”.
For the molecule `O=C(O)c1cccnc1` [niacin, nicotinic acid], in data set [1] (2.5 mmol/kg niacin, high oxygen package (80% O2, 20% CO2), 4 days under light display at 1-3° C.), the “color retention of meat analog” value is on record as “retains a superior color; also recorded: retain a pink color for four days”. Moreover, the “time for which meat analog maintained color” value in data set [1] (storage entirely in 80% O2/20% CO2, light display 300 foot candles, 1-3° C.) is recorded as at most 11 days. Besides, the “ability to stabilize color in meat analog after change of packaging” value in data set [1] (transferred from 80% O2/20% CO2 at day 4 to air-permeable overwrap, assessed at day 8) is recorded as “lost”. In addition, the “stabilization of red color of Lba solution versus control with no niacin” value on soybean Hb (Lba) (1:1 (niacin:Lba) ratio) is on record as “stabilized red color better than control”. The “Redness (a-value) at day 4” value was 4.10c on soybean Hb (Lba) (niacin:Lba molar ratio 1:1), 5.35b on soybean Hb (Lba) (niacin:Lba molar ratio 3:1) and 5.79a on soybean Hb (Lba) (niacin:Lba molar ratio 6:1). Moreover, the “Tolerable Upper Intake Level (UL)” value in data set [3] (European Food Safety Authority) is recorded as 10 mg/day; in data set [3] (Food and Nutrition Board of the U.S. Institute of Medicine) it was 35 mg/day.
Regarding Imidazole, the “pKa as an acid” value in data set [2] (acidic proton on N-1) is listed as 14.5. Besides, in data set [2] (as a base, basic site N-3), the “pKa of the conjugate acid (pKBH+)” value is reported as “approximately 7”.
